# From PubChem BioAssay AID2060899 (Molecular Pharmacology Branch, DTP, NCI, 2025)
# Test system: 565726-208-R1-J5-PDC complex spheroids, growth inhibition
# Test: Anticancer human tumor 565726-208-R1-J5-PDC patient-derived pancreatic adenocarcinoma cell line growth inhibition [RAS]
# Details: for IC50: curve of first compound; for viability, T/C: stronger effect = lower value
# Method in brief: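 Agents were tested in combination matrices in half-log decrements from a top concentration at or near clinical Cmax (10 microM if undetermined). Targets were multi-cell spheroids of tumour lines plus HUVEC and MSC stromal cells.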
# [1] = second compound 0.00316 µM, first compound 0.0316 µM
# [2] = second compound 0.00316 µM, first compound 0.1 µM
# [3] = second compound 0.00316 µM, first compound 0.316 µM
# [4] = second compound 0.00316 µM, first compound 1 µM
# [5] = second compound 0.00316 µM, first compound 3.16 µM
# [6] = second compound 0.00316 µM, first compound 10 µM
# [7] = second compound 0.01 µM, first compound 0.0316 µM
# [8] = second compound 0.01 µM, first compound 0.1 µM
# [9] = second compound 0.01 µM, first compound 0.316 µM
# [10] = second compound 0.01 µM, first compound 1 µM
# [11] = second compound 0.01 µM, first compound 3.16 µM
# [12] = second compound 0.01 µM, first compound 10 µM
# [13] = second compound 0.0316 µM, first compound 0.0316 µM
# [14] = second compound 0.0316 µM, first compound 0.1 µM
# [15] = second compound 0.0316 µM, first compound 0.316 µM
# [16] = second compound 0.0316 µM, first compound 1 µM
# [17] = second compound 0.0316 µM, first compound 3.16 µM
# [18] = second compound 0.0316 µM, first compound 10 µM
# [19] = second compound 0.1 µM, first compound 0.0316 µM
# [20] = second compound 0.1 µM, first compound 0.1 µM
# [21] = second compound 0.1 µM, first compound 0.316 µM
# [22] = second compound 0.1 µM, first compound 1 µM
# [23] = second compound 0.1 µM, first compound 3.16 µM
# [24] = second compound 0.1 µM, first compound 10 µM
# [25] = second compound 0.316 µM, first compound 0.0316 µM
# [26] = second compound 0.316 µM, first compound 0.1 µM
# [27] = second compound 0.316 µM, first compound 0.316 µM
# [28] = second compound 0.316 µM, first compound 1 µM
# [29] = second compound 0.316 µM, first compound 3.16 µM
# [30] = second compound 0.316 µM, first compound 10 µM
# [31] = second compound 1 µM, first compound 0.0316 µM
# [32] = second compound 1 µM, first compound 0.1 µM
# [33] = second compound 1 µM, first compound 0.316 µM
# [34] = second compound 1 µM, first compound 1 µM
# [35] = second compound 1 µM, first compound 3.16 µM
# [36] = second compound 1 µM, first compound 10 µM
# 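Further: spheroids exposed to compounds for seven days before readout.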
# 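Wherever viability, T/C is given: 100% = DMSO vehicle control viability.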
smiles,measurement,setting,value
CC1(O)CCCC1n1c(=O)c(C(F)F)cc2cnc(NC3CCN(S(C)(=O)=O)CC3)nc21 (centres undefined) + C=CC(=O)N1CCN(c2nc(OCC3CCCN3C)nc3c(F)c(-c4nc(N)cc(C)c4C(F)(F)F)c(Cl)cc23)C(C)C1,IC50,second compound 0.00316 µM,4250 nM
same,IC50,second compound 0.01 µM,3860 nM
same,IC50,second compound 0.0316 µM,1880 nM
same,IC50,second compound 0.1 µM,3180 nM
same,IC50,second compound 0.316 µM,3140 nM
same,IC50,second compound 1 µM,3090 nM
same,"viability, T/C",[1],84.6%
same,"viability, T/C",[2],101%
same,"viability, T/C",[3],69.9%
same,"viability, T/C",[4],77.8%
same,"viability, T/C",[5],67.8%
same,"viability, T/C",[6],7.33%
same,"viability, T/C",[7],111%
same,"viability, T/C",[8],116%
same,"viability, T/C",[9],71.8%
same,"viability, T/C",[10],78.2%
same,"viability, T/C",[11],73.2%
same,"viability, T/C",[12],8.22%
same,"viability, T/C",[13],122%
same,"viability, T/C",[14],119%
same,"viability, T/C",[15],61.8%
same,"viability, T/C",[16],68.8%
same,"viability, T/C",[17],59.5%
same,"viability, T/C",[18],4.81%
same,"viability, T/C",[19],117%
same,"viability, T/C",[20],116%
same,"viability, T/C",[21],63.8%
same,"viability, T/C",[22],73.9%
same,"viability, T/C",[23],71.2%
same,"viability, T/C",[24],8.5%
same,"viability, T/C",[25],111%
same,"viability, T/C",[26],116%
same,"viability, T/C",[27],63%
same,"viability, T/C",[28],77.1%
same,"viability, T/C",[29],64.3%
same,"viability, T/C",[30],7.59%
same,"viability, T/C",[31],122%
same,"viability, T/C",[32],112%
same,"viability, T/C",[33],73.5%
same,"viability, T/C",[34],89%
same,"viability, T/C",[35],53%
same,"viability, T/C",[36],6.97%
CCC(CC)c1cc(NC2CCC(N)C2)n2nccc2n1 (centres undefined) + C=CC(=O)N1CCN(c2nc(OCC3CCCN3C)nc3c(F)c(-c4nc(N)cc(C)c4C(F)(F)F)c(Cl)cc23)C(C)C1,IC50,second compound 0.00316 µM,1930 nM
same,IC50,second compound 0.01 µM,1700 nM
same,IC50,second compound 0.0316 µM,1620 nM
same,IC50,second compound 0.1 µM,1600 nM
same,IC50,second compound 0.316 µM,1580 nM
same,IC50,second compound 1 µM,1720 nM
same,"viability, T/C",[1],152%
same,"viability, T/C",[2],180%
same,"viability, T/C",[3],128%
same,"viability, T/C",[4],110%
same,"viability, T/C",[5],1.79%
same,"viability, T/C",[6],2.13%
same,"viability, T/C",[7],166%
same,"viability, T/C",[8],179%
same,"viability, T/C",[9],114%
same,"viability, T/C",[10],94.6%
same,"viability, T/C",[11],3.11%
same,"viability, T/C",[12],1.95%
same,"viability, T/C",[13],174%
same,"viability, T/C",[14],170%
same,"viability, T/C",[15],125%
same,"viability, T/C",[16],88.1%
same,"viability, T/C",[17],1.53%
same,"viability, T/C",[18],2.03%
same,"viability, T/C",[19],221%
same,"viability, T/C",[20],184%
same,"viability, T/C",[21],102%
same,"viability, T/C",[22],96.2%
same,"viability, T/C",[23],1.59%
same,"viability, T/C",[24],2.52%
same,"viability, T/C",[25],182%
same,"viability, T/C",[26],169%
same,"viability, T/C",[27],103%
same,"viability, T/C",[28],92.5%
same,"viability, T/C",[29],1.41%
same,"viability, T/C",[30],2.15%
same,"viability, T/C",[31],175%
same,"viability, T/C",[32],176%
same,"viability, T/C",[33],136%
same,"viability, T/C",[34],92.7%
same,"viability, T/C",[35],1.49%
same,"viability, T/C",[36],1.88%
